According to US11827690B2, “ApoC-II mimetic peptides” (THE UNITED STATES OF AMERICA, as represented by the …, priority 2017, dated 2023):
“Also recorded” adds a separate entry of the source.

Columns and labels:
[1] = molecular target: T1, LPL inhibited by apoC-III (Bos taurus, UniProt P11151); assay: LPL activation assay with high TG human plasma as substrate and recombinant apoC-III as an inhibitor; type: biochemical; details: for effect on inhibition of LPL by apoC-III: high TG human plasma substrate
T1 sequence (P11151 29-478): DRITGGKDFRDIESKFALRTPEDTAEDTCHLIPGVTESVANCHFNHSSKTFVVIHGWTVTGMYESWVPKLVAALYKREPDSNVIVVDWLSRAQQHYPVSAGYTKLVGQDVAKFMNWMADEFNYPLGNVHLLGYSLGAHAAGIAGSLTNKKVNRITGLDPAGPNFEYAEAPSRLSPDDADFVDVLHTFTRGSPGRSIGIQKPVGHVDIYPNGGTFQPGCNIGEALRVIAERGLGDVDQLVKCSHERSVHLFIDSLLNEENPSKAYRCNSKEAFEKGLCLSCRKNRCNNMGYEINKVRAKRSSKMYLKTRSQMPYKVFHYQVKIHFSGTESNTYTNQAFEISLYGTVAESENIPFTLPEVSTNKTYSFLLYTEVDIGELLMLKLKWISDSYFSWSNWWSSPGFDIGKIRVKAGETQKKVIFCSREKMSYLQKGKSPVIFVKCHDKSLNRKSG
Description: LPL activity assay: 10 μL of Intralipid, human plasma sample, or mouse plasma sample was added in each well using repeater pipette. 10 μL (or 15 μL in the wells with no LPL control) of PBS and 10 μL of 1% BSA was added in each well using repeater pipette. 10 μL of peptides were added to corresponding wells in vertical triplicates (lowest concentration is on a left, highest is on the right). The plate was spun down at 1000 RPM for 10 seconds to mix and to remove the solutions from the wall of each well. The plate was put on ice and 5 μL of LPL was added using repeater pipette. The plate was spun down again at 1000 RPM for 10 seconds. The plate was covered and put back on ice for an incubation of 30 min. The plate was then moved to 37° C. and incubated for 1 hour.
Free fatty acids (NEFA) assay: 45 μL of 5 nmoL standard and 0 nmoL control (0.2% BSA) were added to corresponding wells. 225 μL of reagent A was added in each well using the reagent tray and 12-channel pipette. The plate was incubated for 10 min before 75 μL of reagent B was added to each well using the reagent tray and 12-channel pipette. The plate was not covered due to the high volume. The absorbance at 550 nm and 660 nm was measured.
LPL assay was performed using Intralipid, high TG human plasma (1:50 dilution), or apoC-III transgenic mouse plasma (1:50 dilution). When Intralipid was used as a substrate, 25 or 50 μM recombinant ApoC-III was added as an inhibitor. When the high TG human plasma was used as a substrate, 25 or 50 μM recombinant ApoC-III was added as an inhibitor with or without pre-incubation at 37° C. for 1 hour. An apoC-II mimetic peptide was added at various concentrations.

wild-type mice = assay: serum TG of wild-type mice after Intralipid injection with or without LPL inhibitor Triton WR1339; type: in vivo
Description: In some experiments, each animal received 20% Intralipid (FDA approved, Fresenius Kabi, Uppsala, Sweden) in a single dose either by oral gavage (using special sterile single-use non-toxic animal feeding needles) in a dose 10-20 μL/gram body weight (B.W.) (Tuzcu et al. Drug Chem Toxicol 37: 261-267, 2014; Kusminski et al. Nature Medicine 18: 1539-1549, 2012), or by intraperitoneal injection in a single bolus of 0.1-1.0 mL (Mahadero et al. American J Surgery 164: 45-50, 1992), or by intragastric administration of a dietetic commercially-available liquid oil (food grade vegetable, corn, soy or olive oil) in a single dose 10-20 μL/gram body weight. These oils were a source of TG—when absorbed TG tends to be broken down within 3 h (peak in 30 min) (Kritchevsky Nutritional Biochemistry 6:172-178, 1995). Blood samples (20-30 μL) were obtained from the retro-orbital plexus at time points: −1 h, 0 h, 1 h, 3 h, 6 h and 24 h for measurements of lipids. Mice were returned to metabolic cages after the 6 h time point where the food was put back. Once the study was completed (after 24 hours from the fat administration), mice were euthanized and organs collected.
The ability of apolipoprotein mimetic peptides to normalize hypertriglyceridemia in mice treated with an LPL inhibitor, Tyloxapol, in presence of high TG provided by 20% Intralipid, was assessed.
Mice were fasted overnight (approximately 12 hours) before the study and 6 hours during the study, the next day. The apo mimetic peptides were synthetically produced and free of biological contamination (not available as FDA approved compounds/treatment). Peptides were produced and used in sterile conditions and filtered by 0.2 nm filter before injections in a single dose 1-5 μmol/kg B.W. either S.C. or I.P. or I.V. (in a sterile, pharmaceutical grade PBS solution at a volume ≤200 μL). Next, 10% Tyloxapol (Triton WR-1339, T-0307, Sigma-Aldrich) was injected I.V. in a single dose of 5 μL/gram B.W., as described earlier (Zhang Y. L. et al., J Biol Chem. 279: 19362-19374, 2004; Abe C. et al., J. Nutr. 137: 345-350, 2007). […] Finally, each animal received 20% Intralipid (FDA approved, Fresenius Kabi, Uppsala, Sweden) in a single dose either by oral gavage (using special sterile single-use non-toxic animal feeding needles)—in a dose 10-20 μL/gram B.W. (Tuzcu K. et al., Drug Chem Toxicol., 37: 261-267, 2014, Kusminski C. et al., Nature Medicine. 18: 1539-1549, 2012), or by intraperitoneal injection—in a single bolus of 0.1-1.0 mL (Mahadero G. et al., American J Surgery. 164: 45-50, 1992). Blood samples (20-30 μL) were obtained from the retro-orbital plexus at time points: −1 h, 0 h, 1 h, 3 h, 6 h and 24 h for measurements of lipids. Mice were returned to metabolic cages after the 6 h time point where the food was put back. Once the study was completed (after 24 hours from the Intralipid administration), mice were euthanized and organs collected.

[2] = tested on: VLDL isolated from human plasma; assay: ApoC-III displacement study in VLDL isolated from human plasma; type: binding
Description: VLDL or chylomicrons isolated from human plasma were incubated with an apoC-II mimetic peptide for 1 hour at 37° C. and washed 3 times with PBS using spin filter with 100 kDa cutoff membrane. […] ApoC-I, apoC-II, apoC-III, and apoE bands were identified by their corresponding size.

| apoC-II displacement in VLDL ([2]; FIG. 49) | Sequence | influence of pre-incubation of apoC-III with human plasma on peptide effect [1] | concentration at which it overcame the inhibitory effect of apoC-III ([1]; 50 μM apoC-III, FIG. 32) | concentration at which it started to affect lipolysis ([1]; 50 μM apoC-III, FIG. 32) | effect on inhibition of LPL by apoC-III [1] | effect on inhibition of LPL by apoC-III ([1]; listed as ApoC-II-a) | block of rise in serum TG after IP injection of Intralipid (wild-type mice; co-injected with the LPL inhibitor Triton WR1339) | affinity for the VLDL compared with the apolipoproteins [2] | selectivity of apolipoprotein displacement ([2]; MALDI-TOF mass spectrometry, FIG. 29A) | binding of peptide to VLDL versus concentration ([2]; MALDI-TOF, FIG. 29B) | effect on inhibition of LPL by Triton (wild-type mice; FIG. 35B) | serum TG increase after Intralipid injection (wild-type mice; intraperitoneal peptide, presence or absence of Triton, FIG. 35B) | serum TG increase after Intralipid injection (wild-type mice; repeat-dose study, peptide IP 1 hour after Intralipid, 0.25 and 1 μmole/kg, FIG. 46B) | apoC-III displacement in VLDL ([2]; SDS PAGE) |
| --- | --- | --- | --- | --- | --- | --- | --- | --- | --- | --- | --- | --- | --- | --- |
| – | DWLKAFYDKVAEKLKEAFPAMSTYTGIFTDQVLSVLKGEE (listed as Homo sapiens) [apoC-II-a, excluded from the claimed peptides] | did not change the effect | about 0.2 μM | 0.01 µM | further facilitated lipolysis | overcomes the inhibition by apoC-III | about 50% | higher affinity for the VLDL than the apolipoproteins | selectively replaced apoC-III and apoC-I, but not apoC-II; also recorded: selectively displaces apoC-III and apoC-I but not apoC-II | almost proportional to its concentration; also recorded: approximately proportional to its concentration | – | – | – | – |
| also displaced | DYLKEVFEKLRDLYEKFTPAVSTYTGIFTDQVLSVLKGEE [Delta6PV] | – | – | – | overcomes the inhibition of apoC-III | – | – | higher affinity for the VLDL than the apolipoproteins | – | – | reversed the inhibition of LPL by Triton | the TG increase was significantly reduced | the TG increase was significantly reduced | displaced apoC-III in a dose-dependent matter |
